Test results: US20040110802A1, “Antibacterial benzoic acid derivatives” (priority 2002, published 2004)
Values after ≈ are worked out from the molar mass of the structure shown.

System: SAUR 9218
Experiment: MIC Test Method, standard agar dilution
Assay type: cell-based
Conditions: agar dilution, Mueller Hinton agar, incubated overnight at 35° C.; lowest concentration that inhibits visible growth; read-out: SAUR 9218 MIC
Outline: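 MIC (μg/ml) was read as the lowest drug level without visible growth of SAUR 9218 after overnight incubation at 35 °C. Inocula of about 10^4 to 10^5 cells per spot were applied to Mueller Hinton agar containing 2-fold serial compound dilutions.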

SMILES	MIC
CCSc1cncc(C(=O)Nc2ccc(C#N)cc2C(=O)O)c1	1 µg/mL (≈ 3.05 µM)
N#Cc1ccc(NC(=O)c2cncc(Oc3ccccc3)c2)c(C(=O)O)c1	8 µg/mL (≈ 22.3 µM)
COC(Cc1cnc(C(=O)Nc2ccc(Br)cc2C(=O)O)cn1)[C@H](O)CO (stereo partly shown)	> 128 µg/mL
CC1(C)OCC(CCc2cc(C(=O)Nc3ccc(Br)cc3C(=O)O)no2)O1 (stereo not shown)	4 µg/mL (≈ 9.11 µM)
Cc1sc(C(=O)Nc2ccc(C#N)cc2C(=O)O)cc1S(=O)(=O)N1CCN(c2ccc(F)cc2)CC1	16 µg/mL (≈ 30.3 µM)
O=C(O)c1cc(Br)ccc1NC(=O)c1cc2ccccc2n1CCCc1ccccc1	4 µg/mL (≈ 8.38 µM)
CCN(CC)S(=O)(=O)c1ccc2onc(C(=O)Nc3ccc(C#N)cc3C(=O)O)c2c1	0.125 µg/mL (≈ 0.283 µM)
CC(C)CC(=O)Nc1cccc2cc(C(=O)Nc3ccc(C#N)cc3C(=O)O)[nH]c12	2 µg/mL (≈ 4.95 µM)
Cn1c(C(=O)Nc2ccc(Br)cc2C(=O)O)cc2cccc(S(=O)(=O)c3ccccc3)c21	0.125 µg/mL (≈ 0.243 µM)
Cc1ccccc1-c1cc(C(=O)Nc2ccc(I)cc2C(=O)O)no1	0.5 µg/mL (≈ 1.12 µM)
CC(=O)Nc1ccccc1-c1ccc2c(C(=O)Nc3ccc(C#N)cc3C(=O)O)noc2c1	0.5 µg/mL (≈ 1.14 µM)
COCCn1c(C(=O)Nc2ccc(C#N)cc2C(=O)O)cc2ccccc21	0.5 µg/mL (≈ 1.38 µM)
COC(=O)CCCCCCC(=O)Nc1cccc2cc(C(=O)Nc3ccc(C#N)cc3C(=O)O)[nH]c12	1 µg/mL (≈ 2.04 µM)
N#Cc1ccc(NC(=O)c2cc(CNC(=N)N)on2)c(C(=O)O)c1	128 µg/mL (≈ 390 µM)
O=C(Nc1ccc(Br)cc1C(=O)O)c1cnc(CC(O)[C@H]2COC3(CCCCC3)O2)cn1 (stereo partly shown)	128 µg/mL (≈ 253 µM)
CCCCCCSc1ccc(C(=O)Nc2ccc(Br)cc2C(=O)O)nn1	0.125 µg/mL (≈ 0.285 µM)
Cn1c(C(=O)Nc2ccc(C#N)cc2C(=O)O)cc2cccc(NC(=O)c3ccc(N=[N+]=[N-])c(I)c3)c21	> 128 µg/mL
N#Cc1ccc(NC(=O)c2cc3cccc(NC(=O)Cc4cccc5ccccc45)c3[nH]2)c(C(=O)O)c1	0.125 µg/mL (≈ 0.256 µM)
N#Cc1ccc(NC(=O)c2cc(CNCc3ccccc3)on2)c(C(=O)O)c1	2 µg/mL (≈ 5.31 µM)
COc1cccc2cc(C(=O)Nc3ccc(Br)cc3C(=O)O)oc12	32 µg/mL (≈ 82 µM)

SMILES	MIC
CCCCCn1c(C(=O)Nc2ccc(C#N)cc2C(=O)O)cc2ccccc21	2 µg/mL (≈ 5.33 µM)
Cc1noc(C)c1C#Cc1cncc(C(=O)Nc2ccc(C#N)cc2C(=O)O)c1	16 µg/mL (≈ 41.4 µM)
O=C(Nc1ccc(Cl)cc1C(=O)O)c1cc(-c2ccccc2)on1 [drawing 1106]	1 µg/mL (≈ 2.92 µM)
N#Cc1ccc(NC(=O)c2ncc(-c3ccccc3)o2)c(C(=O)O)c1	0.5 µg/mL (≈ 1.5 µM)
COc1ccccc1-c1cccc2cc(C(=O)Nc3ccc(C#N)cc3C(=O)O)n(C)c12	0.25 µg/mL (≈ 0.588 µM)
O=C(Nc1ccc(I)cc1C(=O)O)c1cc(-c2ccccc2F)on1	0.5 µg/mL (≈ 1.11 µM)
N#Cc1ccc(NC(=O)c2noc3cc(OS(=O)(=O)c4ccccc4)ccc23)c(C(=O)O)c1	0.5 µg/mL (≈ 1.08 µM)
CCCCCCCSc1cnc(C(=O)Nc2ccc(C#N)cc2C(=O)O)cn1	0.25 µg/mL (≈ 0.627 µM)
Cc1sc(C(=O)Nc2ccc(Br)cc2C(=O)O)cc1S(=O)(=O)N1CCN(c2ccc(Cl)cc2)CC1	> 128 µg/mL
CCCCS(=O)(=O)Nc1cccc2cc(C(=O)Nc3ccc(C#N)cc3C(=O)O)n(C)c12	0.25 µg/mL (≈ 0.55 µM)
O=C(Nc1ccc(Br)cc1C(=O)O)c1cc(-c2ccccc2C(F)(F)F)on1	0.5 µg/mL (≈ 1.1 µM)
O=C(O)c1cc(Br)ccc1NC(=O)c1noc2ccc(Br)cc12	1 µg/mL (≈ 2.27 µM)
N#Cc1ccc(NC(=O)c2noc3ccc(S(=O)(=O)N(CCO)CCO)cc23)c(C(=O)O)c1	0.5 µg/mL (≈ 1.05 µM)
CN(CC(O)C(O)C(O)C(O)CO)C(=O)Nc1cccc2cc(C(=O)Nc3ccc(C#N)cc3C(=O)O)n(C)c12 (stereo not shown)	32 µg/mL (≈ 57.6 µM)
N#Cc1ccc(NC(=O)c2cc(-c3ccc4c(c3)OCO4)on2)c(C(=O)O)c1	0.125 µg/mL (≈ 0.331 µM)
Cn1c(C(=O)Nc2ccc(C#N)cc2C(=O)O)cc2cccc(NC(=O)Cc3ccc(F)cc3)c21	0.125 µg/mL (≈ 0.266 µM)
CCCCCSc1cnc(C(=O)Nc2ccc(C#N)cc2C(=O)O)cn1	0.125 µg/mL (≈ 0.337 µM)
O=C(Nc1ccc(Br)cc1C(=O)O)c1ccc(-c2ccc([N+](=O)[O-])cc2)o1	64 µg/mL (≈ 148 µM)
N#Cc1ccc(NC(=O)c2nc3ccccc3o2)c(C(=O)O)c1	1 µg/mL (≈ 3.25 µM)
CC(Oc1ccccc1-c1cc(C(=O)Nc2ccc(C#N)cc2C(=O)O)no1)C1CCCCC1 (stereo not shown)	1 µg/mL (≈ 2.18 µM)
